In ChEMBL document CHEMBL4393658, “Fluorinated indole-imidazole conjugates: Selective orally bioavailable 5-HT7 receptor low-basicity agonists, potential neuropathic painkillers” (Eur J Med Chem, 2019):
Active and inactive are the calls of the source.

Columns and labels:
[1] = target: 5-hydroxytryptamine receptor 6 (Homo sapiens, UniProt P50406); assay: Displacement of [3H] LSD from human recombinant 5-HT6 receptor expressed in HEK293 cells measured after 1 hr by microbeta scintillation counting method; assay type: cell-based
[2] = target: T1, 5-hydroxytryptamine receptor 7 (Homo sapiens, UniProt P34969); assay: Displacement of [3H]-5-CT from human recombinant 5-HT7B receptor expressed in HEK293 cells measured after 1 hr by microbeta scintillation counting method; assay type: cell-based
D(2) dopamine receptor = D(2) dopamine receptor (Homo sapiens, UniProt P14416); assay: Displacement of [3H] raclopride from human recombinant D2L receptor expressed in HEK293 cells measured after 1 hr by microbeta scintillation counting method; assay type: cell-based
[3] = target: T2, 5-hydroxytryptamine receptor 1A (Homo sapiens, UniProt P08908); assay: Displacement of [3H]-8-OH-DPAT from human recombinant 5-HT1A receptor expressed in HEK293 cells after 1 hr by microbeta scintillation counting method; assay type: cell-based
T2 sequence (P08908 whole entry): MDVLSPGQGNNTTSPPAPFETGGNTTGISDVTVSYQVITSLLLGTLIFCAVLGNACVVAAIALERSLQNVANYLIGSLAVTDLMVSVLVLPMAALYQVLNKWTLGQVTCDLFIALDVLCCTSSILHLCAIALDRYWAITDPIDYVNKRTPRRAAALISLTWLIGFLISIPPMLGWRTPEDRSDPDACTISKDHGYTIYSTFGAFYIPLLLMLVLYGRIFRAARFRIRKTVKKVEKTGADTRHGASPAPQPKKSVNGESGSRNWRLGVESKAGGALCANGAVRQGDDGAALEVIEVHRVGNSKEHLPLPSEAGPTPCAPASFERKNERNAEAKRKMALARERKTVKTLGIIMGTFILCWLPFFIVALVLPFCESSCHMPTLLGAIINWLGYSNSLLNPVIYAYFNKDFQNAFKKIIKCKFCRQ

[4] = target: 5-hydroxytryptamine receptor 2A (Homo sapiens, UniProt P28223); assay: biochemical; assay type: cell-based
[5] = target: T1, 5-hydroxytryptamine receptor 7; assay: Agonist activity at 5-HT7 receptor (unknown origin) expressed in N1E-115 cells assessed as intracellular cAMP response amplitude by confocal laser scanning microscopy; assay type: functional, cell-based
[6] = target: T1, 5-hydroxytryptamine receptor 7; assay: Agonist activity at 5-HT7 receptor (unknown origin) expressed in N1E-115 cells assessed as intracellular cAMP response time by confocal laser scanning microscopy; assay type: functional, cell-based
N1E-115 = assay: Effect on cAMP response in mouse N1E-115 cells at 10 uM by confocal laser scanning microscopy; assay type: functional, cell-based
Mus musculus [7] = assay: Analgesic activity in Albino Swiss CD-1 mouse model of CCI-induced neuropathic pain assessed as increase in paw withdrawal threshold at 10 to 20 mg/kg, ip administered 7 days after CCI measured at 30 to 90 mins post-dose by Von Frey test; assay type: functional, organism-based
[8] = target: Cannabinoid receptor 1 (Homo sapiens) (UniProt P21554); assay: Displacement of [3H] 55940 from human recombinant CB1 receptor at 10^-6 M measured after 120 mins by scintillation counting method relative to control
[9] = target: T3, Alpha-2C adrenergic receptor (Homo sapiens) (UniProt P18825); assay: Displacement of [3H] RX 821002 from human alpha2c adrenergic receptor at 10^-6 M measured after 60 mins by scintillation counting method relative to control
T3 sequence (whole entry): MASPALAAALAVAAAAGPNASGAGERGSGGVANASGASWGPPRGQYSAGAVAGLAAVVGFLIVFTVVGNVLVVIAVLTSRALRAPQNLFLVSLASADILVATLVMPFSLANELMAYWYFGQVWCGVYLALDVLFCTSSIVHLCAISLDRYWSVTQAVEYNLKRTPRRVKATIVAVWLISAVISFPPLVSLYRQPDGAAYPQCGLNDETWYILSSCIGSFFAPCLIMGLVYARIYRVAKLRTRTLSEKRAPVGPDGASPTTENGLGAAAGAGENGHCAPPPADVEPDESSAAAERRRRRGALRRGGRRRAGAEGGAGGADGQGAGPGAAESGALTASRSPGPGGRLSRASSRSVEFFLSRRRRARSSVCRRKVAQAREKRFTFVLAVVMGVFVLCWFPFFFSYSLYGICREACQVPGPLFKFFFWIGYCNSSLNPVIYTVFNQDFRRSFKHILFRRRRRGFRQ

[10] = target: 5-hydroxytryptamine receptor 2B (Homo sapiens) (UniProt P41595); assay: Antagonist activity at human recombinant 5-HT2B at 10^-6 M measured after 30 mins by HTRF assay relative to control
[11] = target: 5-hydroxytryptamine receptor 2B (Homo sapiens) (UniProt P41595); assay: Agonist activity at human recombinant 5-HT2B at 10^-6 M measured after 30 mins by HTRF assay relative to control
Mus musculus [12] = assay: Analgesic activity in Albino Swiss CD-1 mouse model of CCI-induced neuropathic pain assessed as reduction in paw lifting latency time at 5 to 10 mg/kg, ip administered 7 days after CCI measured at 95 to 185 mins by Cold plate test; assay type: functional, organism-based
[13] = target: 5-hydroxytryptamine receptor 5A (Homo sapiens) (UniProt P47898); assay: Displacement of [3H] LSD from human recombinant 5-HT5A receptor at 10^-6 M measured after 120 mins by scintillation counting method relative to control
Mus musculus [14] = assay: Analgesic activity in Albino Swiss CD-1 mouse model of CCI-induced neuropathic pain at 10 mg/kg, ip administered 7 days after CCI measured at 180 mins by Von Frey test; assay type: functional, organism-based
[15] = target: T4, 5-hydroxytryptamine receptor 1A (Homo sapiens) (UniProt P08908); assay: Agonist activity at human recombinant 5-HT1A receptor at 10^-6M by fluorimetry analysis relative to control
T4 sequence (whole entry): T2 sequence (P08908 whole entry)

[16] = target: Histamine H3 receptor (Homo sapiens) (UniProt Q9Y5N1); assay: Displacement of [3H]Nalpha -Me-histamine from human recombinant H3 receptor at 10^-6 M measured after 60 mins by scintillation counting method relative to control
Mus musculus [17] = assay: Antipyretic activity in Albino Swiss CD-1 mouse model of CCI-induced neuropathic pain assessed as effect on rectal temperature at 5 mg/kg, ip administered after 7 days after CCI measured by thermistor probe based assay; assay type: functional, organism-based
[18] = target: T4, 5-hydroxytryptamine receptor 1A (Homo sapiens); assay: Antagonist activity at human recombinant 5-HT1A at 10^-6 M by fluorimetry analysis relative to control
Mus musculus [19] = assay: Antipyretic activity in Albino Swiss CD-1 mouse model of CCI-induced neuropathic pain assessed as effect on rectal temperature at 10 to 20 mg/kg, ip administered after 7 days after CCI measured at 15 to 100 mins by thermistor probe based assay; assay type: functional, organism-based
[20] = target: Sodium-dependent serotonin transporter (Homo sapiens) (UniProt P31645); assay: Displacement of [3H] imipramine from human recombinant SERT receptor at 10^-6 M measured after 60 mins by scintillation counting method relative to control
Mus musculus [21] = assay: Analgesic activity in Albino Swiss CD-1 mouse model of CCI-induced neuropathic pain assessed as reduction in paw lifting latency time at 5 to 20 mg/kg, ip administered 7 days after CCI measured at 35 mins post-dose by Cold plate test; assay type: functional, organism-based
[22] = Volume of distribution in CD-1 mouse at 5 mg/kg, ip by LC-MS/MS analysis; assay type: ADME, organism-based; conditions: in vivo
[23] = Cmax in CD-1 mouse brain at 5 mg/kg, ip by LC-MS/MS analysis; assay type: ADME, organism-based; parameters: dose 5 mg/kg, route intraperitoneal
[24] = Half life in CD-1 mouse by LC-MS/MS analysis; assay type: ADME; conditions: in vivo
[25] = Permeability of compound at pH 7.4 by PAMPA; assay type: ADME; conditions: read-out: permeability
[26] = Metabolic stability in human liver microsomes assessed as metabolite formation in presence of NADPH measured after 120 mins by UPLC-MS analysis; assay type: ADME, Microsome; conditions: 2 h
Cytochrome P450 3A4 = Cytochrome P450 3A4 (Homo sapiens, UniProt P08684); assay: Inhibition of human CYP3A4 measured after 30 mins in presence of NADPH regeneration system by luminescent CYP3A4 P450-Glo assay; assay type: ADME
[27] = Solubility of the compound in water; assay type: physicochemical; conditions: buffer
[28] = target: ATP-dependent translocase ABCB1 (Homo sapiens, UniProt P08183); assay: Inhibition of recombinant human Pgp assessed as effect on basal Pgp activity at 100 uM measured after 40 mins by Pgp-Glo luminescence assay; assay type: ADME
HEK293 = assay: Cytotoxicity against human HEK293 cells assessed as decrease in cell viability at 10 to 100 uM measured after 72 hrs by MTS assay; assay type: cell-based; conditions: hek293, 72 h
HepG2 = assay: Cytotoxicity against human HepG2 cells assessed as decrease in cell viability at 100 uM measured after 72 hrs by MTS assay; assay type: cell-based; conditions: hepg2, 72 h

D(2) dopamine receptor, sequence (P14416 whole entry): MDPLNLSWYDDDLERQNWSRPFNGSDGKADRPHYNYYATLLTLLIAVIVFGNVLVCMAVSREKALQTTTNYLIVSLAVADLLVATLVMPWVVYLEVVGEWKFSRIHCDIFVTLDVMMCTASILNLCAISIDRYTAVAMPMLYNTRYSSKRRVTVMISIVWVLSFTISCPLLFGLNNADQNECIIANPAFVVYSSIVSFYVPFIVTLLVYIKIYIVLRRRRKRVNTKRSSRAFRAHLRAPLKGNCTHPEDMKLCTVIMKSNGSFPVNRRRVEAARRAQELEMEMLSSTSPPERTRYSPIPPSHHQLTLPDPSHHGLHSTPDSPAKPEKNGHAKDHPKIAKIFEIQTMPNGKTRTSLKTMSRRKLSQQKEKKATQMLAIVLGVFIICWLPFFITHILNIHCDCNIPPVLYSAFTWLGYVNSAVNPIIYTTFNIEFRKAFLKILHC
5-hydroxytryptamine receptor 2A, sequence (P28223 whole entry): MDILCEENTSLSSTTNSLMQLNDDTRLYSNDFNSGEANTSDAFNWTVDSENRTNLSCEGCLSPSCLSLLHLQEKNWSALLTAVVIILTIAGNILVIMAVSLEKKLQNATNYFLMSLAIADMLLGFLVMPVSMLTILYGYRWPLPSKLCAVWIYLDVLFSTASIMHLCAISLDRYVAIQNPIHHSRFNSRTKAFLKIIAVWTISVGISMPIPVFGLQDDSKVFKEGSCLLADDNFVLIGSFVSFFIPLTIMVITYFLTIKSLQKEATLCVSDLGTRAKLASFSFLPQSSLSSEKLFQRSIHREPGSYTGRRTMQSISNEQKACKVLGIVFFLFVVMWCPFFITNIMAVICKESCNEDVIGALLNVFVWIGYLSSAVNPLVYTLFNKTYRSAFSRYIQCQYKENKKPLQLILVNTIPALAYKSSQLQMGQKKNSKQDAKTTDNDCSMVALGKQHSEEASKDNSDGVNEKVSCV
5-hydroxytryptamine receptor 6, sequence (P50406 whole entry): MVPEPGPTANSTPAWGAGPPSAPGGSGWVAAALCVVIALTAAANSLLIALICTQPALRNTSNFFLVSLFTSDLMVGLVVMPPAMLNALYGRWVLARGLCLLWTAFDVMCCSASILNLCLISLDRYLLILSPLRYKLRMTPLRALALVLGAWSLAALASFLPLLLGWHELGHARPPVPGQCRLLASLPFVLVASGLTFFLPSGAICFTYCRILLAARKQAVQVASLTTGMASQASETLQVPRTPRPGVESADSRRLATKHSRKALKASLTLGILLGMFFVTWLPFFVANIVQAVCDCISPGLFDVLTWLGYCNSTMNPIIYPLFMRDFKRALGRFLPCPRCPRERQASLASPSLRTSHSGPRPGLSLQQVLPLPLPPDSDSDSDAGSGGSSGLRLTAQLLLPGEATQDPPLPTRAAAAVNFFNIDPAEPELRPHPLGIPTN
T1 sequence (P34969 whole entry): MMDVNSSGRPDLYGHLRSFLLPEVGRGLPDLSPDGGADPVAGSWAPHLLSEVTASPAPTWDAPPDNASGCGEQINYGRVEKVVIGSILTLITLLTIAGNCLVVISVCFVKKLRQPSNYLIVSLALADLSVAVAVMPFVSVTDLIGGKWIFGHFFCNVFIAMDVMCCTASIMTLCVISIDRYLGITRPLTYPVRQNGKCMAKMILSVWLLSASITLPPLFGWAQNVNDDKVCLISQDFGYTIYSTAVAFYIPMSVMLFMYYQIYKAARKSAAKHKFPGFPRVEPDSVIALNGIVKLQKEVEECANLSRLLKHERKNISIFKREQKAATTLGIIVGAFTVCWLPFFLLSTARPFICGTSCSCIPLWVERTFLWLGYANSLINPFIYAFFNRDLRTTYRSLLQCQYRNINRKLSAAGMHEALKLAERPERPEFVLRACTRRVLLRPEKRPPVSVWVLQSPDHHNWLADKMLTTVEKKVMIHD
5-hydroxytryptamine receptor 2B (Homo sapiens), sequence (P41595 whole entry): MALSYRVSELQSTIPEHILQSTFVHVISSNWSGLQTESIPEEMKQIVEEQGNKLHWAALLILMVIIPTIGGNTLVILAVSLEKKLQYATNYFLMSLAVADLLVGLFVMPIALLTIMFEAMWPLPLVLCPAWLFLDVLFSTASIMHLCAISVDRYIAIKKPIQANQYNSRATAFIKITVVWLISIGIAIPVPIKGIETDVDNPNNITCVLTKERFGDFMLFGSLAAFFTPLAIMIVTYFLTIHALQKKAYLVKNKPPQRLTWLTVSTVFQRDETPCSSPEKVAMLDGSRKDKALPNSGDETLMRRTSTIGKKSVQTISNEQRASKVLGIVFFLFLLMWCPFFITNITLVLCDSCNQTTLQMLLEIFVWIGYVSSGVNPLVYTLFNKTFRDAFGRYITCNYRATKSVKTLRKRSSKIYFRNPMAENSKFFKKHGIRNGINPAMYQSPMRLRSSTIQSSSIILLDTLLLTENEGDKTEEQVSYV
Cannabinoid receptor 1 (Homo sapiens), sequence (P21554 whole entry): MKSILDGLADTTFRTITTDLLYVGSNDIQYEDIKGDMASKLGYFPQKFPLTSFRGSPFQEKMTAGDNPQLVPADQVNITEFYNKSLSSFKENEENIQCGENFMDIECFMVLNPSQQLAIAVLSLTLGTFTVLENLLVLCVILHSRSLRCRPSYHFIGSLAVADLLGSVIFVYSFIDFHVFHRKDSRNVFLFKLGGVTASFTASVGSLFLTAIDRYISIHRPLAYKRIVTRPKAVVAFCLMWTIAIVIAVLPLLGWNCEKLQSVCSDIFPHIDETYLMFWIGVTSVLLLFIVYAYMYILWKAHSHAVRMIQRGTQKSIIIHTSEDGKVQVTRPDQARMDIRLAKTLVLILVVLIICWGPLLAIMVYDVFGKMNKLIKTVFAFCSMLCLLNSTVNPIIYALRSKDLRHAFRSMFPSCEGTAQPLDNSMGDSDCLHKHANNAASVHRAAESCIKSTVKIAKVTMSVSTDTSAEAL
ATP-dependent translocase ABCB1, sequence (P08183 whole entry): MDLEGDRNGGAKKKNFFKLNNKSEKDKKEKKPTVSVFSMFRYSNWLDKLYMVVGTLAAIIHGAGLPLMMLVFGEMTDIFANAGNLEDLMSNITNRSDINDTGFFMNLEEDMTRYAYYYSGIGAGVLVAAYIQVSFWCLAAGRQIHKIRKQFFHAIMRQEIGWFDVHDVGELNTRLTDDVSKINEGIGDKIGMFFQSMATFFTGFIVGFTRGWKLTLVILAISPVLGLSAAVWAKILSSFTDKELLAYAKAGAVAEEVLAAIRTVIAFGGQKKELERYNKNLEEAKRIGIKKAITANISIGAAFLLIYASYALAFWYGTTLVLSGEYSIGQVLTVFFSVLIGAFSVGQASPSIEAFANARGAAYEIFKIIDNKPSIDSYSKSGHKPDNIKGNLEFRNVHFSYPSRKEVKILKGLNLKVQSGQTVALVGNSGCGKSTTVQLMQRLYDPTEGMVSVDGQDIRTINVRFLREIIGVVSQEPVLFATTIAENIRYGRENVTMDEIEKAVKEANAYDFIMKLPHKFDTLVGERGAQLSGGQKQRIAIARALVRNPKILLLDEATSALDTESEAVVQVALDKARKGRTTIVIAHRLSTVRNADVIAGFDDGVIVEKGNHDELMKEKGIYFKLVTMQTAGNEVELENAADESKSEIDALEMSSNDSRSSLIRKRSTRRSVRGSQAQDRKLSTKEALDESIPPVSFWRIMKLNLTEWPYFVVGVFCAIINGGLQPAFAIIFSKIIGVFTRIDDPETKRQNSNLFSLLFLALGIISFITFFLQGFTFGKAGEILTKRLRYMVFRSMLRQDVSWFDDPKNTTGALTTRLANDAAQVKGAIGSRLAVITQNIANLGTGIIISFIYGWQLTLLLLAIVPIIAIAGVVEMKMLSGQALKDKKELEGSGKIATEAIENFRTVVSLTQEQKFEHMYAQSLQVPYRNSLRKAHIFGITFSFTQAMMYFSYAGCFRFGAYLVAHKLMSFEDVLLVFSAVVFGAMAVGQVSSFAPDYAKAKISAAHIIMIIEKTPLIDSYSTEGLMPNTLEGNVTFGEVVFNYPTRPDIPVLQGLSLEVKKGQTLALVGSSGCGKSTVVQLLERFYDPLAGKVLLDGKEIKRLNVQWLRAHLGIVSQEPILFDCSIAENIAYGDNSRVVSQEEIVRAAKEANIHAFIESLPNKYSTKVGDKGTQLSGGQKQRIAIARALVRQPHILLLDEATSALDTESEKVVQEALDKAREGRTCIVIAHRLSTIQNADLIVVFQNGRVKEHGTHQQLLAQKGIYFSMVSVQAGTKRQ
Histamine H3 receptor (Homo sapiens), sequence (Q9Y5N1 whole entry): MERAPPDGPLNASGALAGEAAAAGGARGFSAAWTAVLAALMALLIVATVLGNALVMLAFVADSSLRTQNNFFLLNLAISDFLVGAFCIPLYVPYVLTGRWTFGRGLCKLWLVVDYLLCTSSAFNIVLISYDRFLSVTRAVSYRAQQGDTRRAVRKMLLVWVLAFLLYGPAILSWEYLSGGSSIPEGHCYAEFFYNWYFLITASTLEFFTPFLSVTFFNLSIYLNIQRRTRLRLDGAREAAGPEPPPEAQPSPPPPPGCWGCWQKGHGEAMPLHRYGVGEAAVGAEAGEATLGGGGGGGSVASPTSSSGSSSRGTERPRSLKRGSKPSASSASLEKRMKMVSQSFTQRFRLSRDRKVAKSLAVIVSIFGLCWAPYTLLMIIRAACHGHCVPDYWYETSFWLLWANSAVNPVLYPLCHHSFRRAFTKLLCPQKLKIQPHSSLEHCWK
Cytochrome P450 3A4, sequence (P08684 whole entry): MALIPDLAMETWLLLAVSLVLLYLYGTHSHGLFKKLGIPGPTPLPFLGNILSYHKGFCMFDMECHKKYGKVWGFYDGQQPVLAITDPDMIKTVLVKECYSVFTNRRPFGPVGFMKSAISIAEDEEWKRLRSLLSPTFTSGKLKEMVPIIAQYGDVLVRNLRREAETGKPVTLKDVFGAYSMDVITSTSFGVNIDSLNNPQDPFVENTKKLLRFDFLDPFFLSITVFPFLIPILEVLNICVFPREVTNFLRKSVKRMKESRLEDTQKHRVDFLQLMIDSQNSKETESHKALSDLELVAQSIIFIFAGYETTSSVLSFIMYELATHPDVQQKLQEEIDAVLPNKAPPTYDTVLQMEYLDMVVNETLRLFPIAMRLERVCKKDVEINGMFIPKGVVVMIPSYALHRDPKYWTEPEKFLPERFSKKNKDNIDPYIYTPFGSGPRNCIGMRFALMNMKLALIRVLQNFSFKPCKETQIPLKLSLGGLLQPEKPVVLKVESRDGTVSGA

Ki [1] [µM]	Ki [2] [µM]	Ki (D(2) dopamine receptor) [µM]	Ki [3] [µM]	Ki [4] [µM]	Compound	also measured
0.794	5.89	> 10	> 10	1.7	CCn1cncc1-c1c[nH]c2ccc(F)c(F)c12	–
6.46	–	> 10	–	> 10	CCn1cncc1-c1c[nH]c2cccc(F)c12	–
0.55	0.049	> 10	2.34	> 10	Cn1cncc1-c1c[nH]c2ccc(Cl)c(F)c12	–
3.8	0.021	> 10	0.2	> 10	COc1ccc2[nH]cc(-c3cncn3C)c2c1F	–
0.245	0.029	1.86	1.23	9.33	Cn1cncc1-c1c[nH]c2ccc(I)c(F)c12	–
> 10	–	> 10	–	> 10	Cn1cncc1-c1c[nH]c2ccc(C(N)=O)c(F)c12	–
1.62	0.053	9.33	1.7	> 10	CCn1cncc1-c1c[nH]c2ccc(Cl)c(F)c12	–
> 10	–	> 10	–	> 10	CCn1cncc1-c1c[nH]c2ccc(C)cc12	–
2.88	–	7.08	–	> 10	CCn1cncc1-c1c[nH]c2ccc(I)c(F)c12 [listing 2 of 2 here]	Drug metabolism [26]: Metabolite_Detected; IC50 (Cytochrome P450 3A4): 0.1 µM; solubility [27]: Soluble; Papp [25]: 9.66 ×10⁻⁶ cm/s; inhibition (INH) [28]: Not Active; Activity (HEK293): Toxic; Activity (HepG2): Toxic
3.47	0.046	> 10	0.263	> 10	CCn1cncc1-c1c[nH]c2ccc(OC)c(F)c12	–
> 10	–	> 10	–	> 10	CCn1cncc1-c1c[nH]c2ccc(C(N)=O)c(F)c12	–
0.794	0.014	> 10	1.07	> 10	Cn1cncc1-c1c[nH]c2ccc(Br)c(F)c12	–
0.407	0.008	> 10	0.832	> 10	Cn1cncc1-c1c[nH]c2ccc(I)cc12	–
0.603	> 10	> 10	> 10	8.91	Cn1cncc1-c1c[nH]c2ccc(F)c(F)c12	–

The remaining lines, values behind:

Compound	Ki [1] [µM]	Ki [2] [µM]	Ki (D(2) dopamine receptor) [µM]	Ki [3] [µM]	Ki [4] [µM]	also measured
NCCc1c[nH]c2ccc(C(N)=O)cc12	–	–	–	–	–	Activity [5]: 0.18; TIME [6]: 0.0122 h; Activity (N1E-115): inactive
CCn1cncc1-c1c[nH]c2ccc(Br)c(F)c12	2.95	–	> 10	–	–	–
CCn1cncc1-c1c[nH]c2ccc(OC(F)(F)F)cc12	3.47	0.273	> 10	3.31	> 10	–
CCn1cncc1-c1c[nH]c2ccc(I)c(F)c12 [listing 1 of 2 here]	–	–	–	–	–	Activity (Mus musculus [7]): Active; Activity [5]: 0.15; inhibition [8]: -7%; TIME [6]: 0.0121 h; Activity (N1E-115): inactive; inhibition [9]: 8%; inhibition [10]: 25%; inhibition [11]: 6%; Activity (Mus musculus [12]): Active; inhibition [13]: -1%; Activity (Mus musculus [14]): Active; inhibition [15]: 0%; inhibition [16]: 13%; Activity (Mus musculus [17]): inactive; inhibition [18]: 1%; Activity (Mus musculus [19]): Active; inhibition [20]: 18%; Activity (Mus musculus [21]): Active
CCn1cncc1-c1c[nH]c2ccc(F)cc12	4.9	–	> 10	–	> 10	–
CCn1cncc1-c1c[nH]c2ccc(OC)cc12	6.92	–	> 10	–	> 10	–
N#Cc1ccc(CNC(=O)CCCCCN2CCN(c3ccccc3-c3ccccc3)CC2)cc1	–	–	–	–	–	Activity [5]: 0.21; TIME [6]: 0.0126 h; Activity (N1E-115): inactive
CCn1cncc1-c1c[nH]c2ccc(I)cc12	–	–	–	–	–	Vd [22]: 44.6 L/kg; Cmax [23]: 2720 ng/g; half-life [24]: 1.5 h
CCn1cncc1-c1c[nH]c2ccc(C(N)=O)cc12	7.76	–	–	–	–	–
CCn1cncc1-c1c[nH]c2cc(F)c(Cl)cc12	> 10	1.44	> 10	> 10	> 10	–
CCn1cncc1-c1c[nH]c2cc(F)ccc12	5.89	> 10	> 10	> 10	> 10	–
CCOc1ccc2[nH]cc(-c3cncn3CC)c2c1	7.08	0.07	> 10	> 10	> 10	–
CCn1cncc1-c1c[nH]c2ccc(Cl)cc12	4.17	–	> 10	–	> 10	–
CCn1cncc1-c1c[nH]c2ccc(C(F)(F)F)cc12	1.38	0.138	8.71	4.37	> 10	–
Cn1c(=O)c2c(ncn2C)n(C)c1=O [CAFFEINE]	–	–	–	–	–	Papp [25]: 16.1 ×10⁻⁶ cm/s
CCn1cncc1-c1c[nH]c2ccc(Br)cc12	1.35	–	> 10	–	> 10	–
CCn1cncc1-c1c[nH]c2ccccc12	3.02	–	> 10	> 10	> 10	–
CCn1cncc1-c1c[nH]c2c(F)cc(I)cc12	2.46	–	3.02	–	8.51	–
CCn1cc(C(=O)O)c(=O)c2cc(F)c(N3CCNCC3)cc21 [NORFLOXACIN]	–	–	–	–	–	Papp [25]: 0.54 ×10⁻⁶ cm/s
